{"source": "patent US12150971B2", "about": "“Method and composition for preventing and treating Covid-19 and long Covid” (priority 2021, dated 2024)", "tested_on": "xCT", "test": "Western blot of xCT in THP-1-derived macrophages", "format": "cell-based, human", "conditions": "5 mM NAC 1 h pretreatment, then 100 μg/ml Virofree 6 or 24 h", "experimental": "The cells were exposed to different treatments for the indicated time, the cells were lysed on ice with lysis buffer. The cell lysate was cleared by centrifugation at 12,000 g for 10 min. The lysate was resolved by sodium dodecyl sulfate-polyacrylamide gel electrophoresis, and the proteins were transferred to a polyvinylidene fluoride membrane. After blocking with 5% non-fat dry milk in Tris-buffered saline, the membrane was incubated overnight with the desired primary antibody (FPN (Novus Biologicals, NBP1-21502, 1:1000), FTH-1 (Cell signaling, 4393S, 1:1000), GPX4 (Abcam, ab125066, 1:1000), TFRC (Cell signaling, 13208s, 1:1000), xCT (Cell signaling, 17681s, 1:1000), GAPDH (GeneTex, GTX100118, 1:10,000), α-SMA (Abcam, ab5694, 1:1000), Fibronectin (Santa Cruz, sc-9068, 1:1000), N-cadherin (BD, 610920, 1:1000), β-actin (GeneTex, GTX109639, 1:10000)). Subsequently, the membrane was incubated with an appropriate secondary antibody. Immunoreactive bands were visualized using the enhanced chemiluminescence (ECL) method and captured by a Luminescence Imaging system (LAS 4000™, Fuji Photo Film Co. Ltd)."}
{"molecule": "CC(=O)N[C@@H](CS)C(=O)O", "note": "[N-acetyl cysteine]", "values": [{"measurement": "xCT expression mediated by Virofree after NAC pretreatment", "value": "significantly decrease"}]}
